Results as given in ChEMBL document CHEMBL1201862, “PubChem BioAssay data set” (2004).
Active and inactive are the calls of the source.

Legend:
[1] = activation of miR-122 Renilla sensor silencing – cell-based, Huh7 psiCHECK-miR122, Renilla luciferase, cherry-picked, dose response (AID 651956); format: functional;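 also: huh7 hepatoma cells stably carrying a psiCHECK-2 miR-122 sensor plasmid; renilla luciferase signal reporting endogenous miR-122 activity after 48 h compound exposure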
[2] = target: T1, Low molecular weight phosphotyrosine protein phosphatase (Homo sapiens, UniProt P24666); format: functional; settings: read-out: IC50_Mean
T1 sequence (P24666 whole entry): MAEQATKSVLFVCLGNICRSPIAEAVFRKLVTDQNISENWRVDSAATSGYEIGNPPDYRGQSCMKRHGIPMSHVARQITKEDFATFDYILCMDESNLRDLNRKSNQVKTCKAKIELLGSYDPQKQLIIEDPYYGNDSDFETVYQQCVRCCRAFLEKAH

[3] = target: T1, Low molecular weight phosphotyrosine protein phosphatase; format: functional; settings: read-out: IC50_Mean; remark: listed apart in the source
[4] = target: T2, Fatty acid synthase (Homo sapiens, UniProt P49327); test: inhibition of human FAS-TE enzyme activity – biochemical, endpoint fluorescence intensity, uHTS hits, dose response (AID 624327); format: functional;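 also: fluorescence from hydrolysis of an O-methyl fluorescein acyl ester substrate by the enzyme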
[5] = target: T2, Fatty acid synthase; test: inhibition of human FAS-TE enzyme activity – biochemical, kinetic fluorescence intensity, dose response (AID 624326); format: functional;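 also: rate of fluorescence rise from hydrolysis of a fluorogenic O-methyl fluorescein ester substrate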
[6] = target: T3, Ubiquitin-conjugating enzyme E2 N (Homo sapiens, UniProt P61088); format: functional;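 also: Dose-response confirmation in a TR-FRET assay detecting UBC13-driven polyubiquitin chain formation, inhibition measured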
T3 sequence (P61088 whole entry): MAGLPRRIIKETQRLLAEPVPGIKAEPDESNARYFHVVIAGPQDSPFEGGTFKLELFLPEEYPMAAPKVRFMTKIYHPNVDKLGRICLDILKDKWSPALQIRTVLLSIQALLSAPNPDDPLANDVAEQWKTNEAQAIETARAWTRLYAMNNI

[7] = target: T4, DNA repair and recombination protein RAD54-like (Homo sapiens, UniProt Q92698); test: RAD54 Holliday junction migration blockers – biochemical, fluorescence, cherry-picked samples, dose series, confirmation (AID 651657); format: functional
T4 sequence (Q92698 whole entry): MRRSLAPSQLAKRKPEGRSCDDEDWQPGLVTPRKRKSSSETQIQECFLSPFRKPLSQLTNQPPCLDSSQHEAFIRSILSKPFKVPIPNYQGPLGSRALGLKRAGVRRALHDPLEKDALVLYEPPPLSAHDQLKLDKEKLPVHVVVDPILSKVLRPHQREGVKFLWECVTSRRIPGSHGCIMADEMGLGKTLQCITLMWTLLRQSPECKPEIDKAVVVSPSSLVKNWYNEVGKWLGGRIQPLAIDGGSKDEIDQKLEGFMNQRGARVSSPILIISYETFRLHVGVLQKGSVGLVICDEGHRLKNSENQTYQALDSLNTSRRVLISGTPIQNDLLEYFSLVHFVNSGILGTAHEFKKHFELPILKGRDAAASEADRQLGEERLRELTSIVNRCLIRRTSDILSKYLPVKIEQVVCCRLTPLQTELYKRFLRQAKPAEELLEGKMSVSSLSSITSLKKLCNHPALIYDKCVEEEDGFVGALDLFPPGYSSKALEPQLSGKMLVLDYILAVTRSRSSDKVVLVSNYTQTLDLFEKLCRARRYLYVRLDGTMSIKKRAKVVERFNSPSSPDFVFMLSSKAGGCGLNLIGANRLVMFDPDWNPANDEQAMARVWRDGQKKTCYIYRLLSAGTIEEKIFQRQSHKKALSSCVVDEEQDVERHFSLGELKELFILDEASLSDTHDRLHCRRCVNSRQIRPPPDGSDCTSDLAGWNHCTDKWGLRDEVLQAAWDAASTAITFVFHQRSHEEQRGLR

[8] = target: T5, DNA repair protein RAD52 homolog (Homo sapiens, UniProt P43351); format: functional, biochemical
T5 sequence (P43351 whole entry): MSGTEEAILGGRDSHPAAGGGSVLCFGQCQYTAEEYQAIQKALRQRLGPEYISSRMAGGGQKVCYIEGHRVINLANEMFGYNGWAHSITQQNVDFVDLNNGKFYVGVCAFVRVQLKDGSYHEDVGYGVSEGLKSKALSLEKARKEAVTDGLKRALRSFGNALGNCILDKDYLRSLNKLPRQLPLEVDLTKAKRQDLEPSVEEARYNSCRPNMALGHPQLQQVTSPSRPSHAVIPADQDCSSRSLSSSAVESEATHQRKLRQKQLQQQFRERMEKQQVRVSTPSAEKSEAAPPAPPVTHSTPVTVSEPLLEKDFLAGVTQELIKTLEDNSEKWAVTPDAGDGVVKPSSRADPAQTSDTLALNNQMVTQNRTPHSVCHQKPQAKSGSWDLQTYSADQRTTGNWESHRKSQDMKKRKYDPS

[9] = target: Genome polyprotein (dengue virus type 2, UniProt P29990); test: flavivirus cap methylation enzyme inhibition – biochemical, confirmation dose response, primary screen (AID 588689); format: functional
[10] = target: T6, Hepatocyte nuclear factor 4-alpha (Homo sapiens, UniProt P41235); format: functional, cell-based;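 also: biochemical luminescence-based dose-response counterscreen measuring inhibition of HNF4 dimerization, run alongside a screen for blockers of ABHD5–perilipin-5 interaction; split luciferase complementation of HNF4 fusion proteins in cell lysate measuring dimerization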
T6 sequence (P41235 whole entry): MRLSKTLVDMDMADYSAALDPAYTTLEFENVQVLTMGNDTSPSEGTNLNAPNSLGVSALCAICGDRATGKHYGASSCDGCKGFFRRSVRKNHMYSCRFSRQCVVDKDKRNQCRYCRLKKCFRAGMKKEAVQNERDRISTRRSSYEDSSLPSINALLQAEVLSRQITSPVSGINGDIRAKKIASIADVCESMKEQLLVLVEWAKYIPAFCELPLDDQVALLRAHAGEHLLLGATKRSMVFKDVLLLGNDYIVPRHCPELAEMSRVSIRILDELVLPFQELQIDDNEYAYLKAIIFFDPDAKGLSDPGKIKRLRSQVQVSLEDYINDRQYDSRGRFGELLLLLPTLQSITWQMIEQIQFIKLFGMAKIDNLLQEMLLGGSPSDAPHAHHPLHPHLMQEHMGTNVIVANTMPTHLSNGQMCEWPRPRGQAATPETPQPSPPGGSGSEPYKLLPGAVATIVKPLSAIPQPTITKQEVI

[11] = target: Beta-galactosidase (Escherichia coli, UniProt Q8VNN2); test: PubChem AID 485352; format: functional
[12] = target: T7, Type-1 angiotensin II receptor (Homo sapiens, UniProt P30556); test: antagonism of angiotensin II type 1 receptor – cell-based, uHTS hits, selectivity assay for APJ receptor antagonist project, dose response (AID 463214); format: functional;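 also: antagonist potency against angiotensin II stimulated AT1 response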
T7 sequence (P30556 whole entry): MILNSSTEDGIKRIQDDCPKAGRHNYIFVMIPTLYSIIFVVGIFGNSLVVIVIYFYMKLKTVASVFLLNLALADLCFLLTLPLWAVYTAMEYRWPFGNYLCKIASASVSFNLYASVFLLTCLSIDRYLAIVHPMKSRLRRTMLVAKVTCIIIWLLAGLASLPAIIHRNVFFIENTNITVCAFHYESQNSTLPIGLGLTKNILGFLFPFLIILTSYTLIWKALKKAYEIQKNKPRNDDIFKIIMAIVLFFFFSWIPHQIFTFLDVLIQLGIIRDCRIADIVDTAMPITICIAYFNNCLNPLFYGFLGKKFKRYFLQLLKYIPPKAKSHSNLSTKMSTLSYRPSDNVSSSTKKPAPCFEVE

[13] = target: T8, Carboxy-terminal domain RNA polymerase II polypeptide A small phosphatase 1 (Homo sapiens, UniProt Q9GZU7); test: CTDSP1 inhibitors, concentration-response, biochemical, absorbance readout, ultra-high-throughput screen actives (AID 540297); format: functional
T8 sequence (Q9GZU7 whole entry): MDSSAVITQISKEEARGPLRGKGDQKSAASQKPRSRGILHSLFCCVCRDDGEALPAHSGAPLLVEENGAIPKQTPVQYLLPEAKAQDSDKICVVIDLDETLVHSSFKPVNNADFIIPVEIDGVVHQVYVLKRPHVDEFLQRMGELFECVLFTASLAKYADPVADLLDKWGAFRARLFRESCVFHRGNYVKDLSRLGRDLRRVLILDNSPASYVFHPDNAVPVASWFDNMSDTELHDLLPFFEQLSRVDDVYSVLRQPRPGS

[14] = Luminescence Cell-Based Dose Retest to Confirm Inhibitors of Cancer Stem Cells. [Related pubchem assays (depositor defined):AID2717, AID2721]; format: functional; settings: Homo sapiens
[15] = target: T9, Replicative DNA helicase DnaB (Mycobacterium tuberculosis, UniProt P9WMR3); test: DnaB intein splicing inhibitors, dose response, biochemical, cell-free fluorescence (AID 449749); format: functional
T9 sequence (P9WMR3 whole entry): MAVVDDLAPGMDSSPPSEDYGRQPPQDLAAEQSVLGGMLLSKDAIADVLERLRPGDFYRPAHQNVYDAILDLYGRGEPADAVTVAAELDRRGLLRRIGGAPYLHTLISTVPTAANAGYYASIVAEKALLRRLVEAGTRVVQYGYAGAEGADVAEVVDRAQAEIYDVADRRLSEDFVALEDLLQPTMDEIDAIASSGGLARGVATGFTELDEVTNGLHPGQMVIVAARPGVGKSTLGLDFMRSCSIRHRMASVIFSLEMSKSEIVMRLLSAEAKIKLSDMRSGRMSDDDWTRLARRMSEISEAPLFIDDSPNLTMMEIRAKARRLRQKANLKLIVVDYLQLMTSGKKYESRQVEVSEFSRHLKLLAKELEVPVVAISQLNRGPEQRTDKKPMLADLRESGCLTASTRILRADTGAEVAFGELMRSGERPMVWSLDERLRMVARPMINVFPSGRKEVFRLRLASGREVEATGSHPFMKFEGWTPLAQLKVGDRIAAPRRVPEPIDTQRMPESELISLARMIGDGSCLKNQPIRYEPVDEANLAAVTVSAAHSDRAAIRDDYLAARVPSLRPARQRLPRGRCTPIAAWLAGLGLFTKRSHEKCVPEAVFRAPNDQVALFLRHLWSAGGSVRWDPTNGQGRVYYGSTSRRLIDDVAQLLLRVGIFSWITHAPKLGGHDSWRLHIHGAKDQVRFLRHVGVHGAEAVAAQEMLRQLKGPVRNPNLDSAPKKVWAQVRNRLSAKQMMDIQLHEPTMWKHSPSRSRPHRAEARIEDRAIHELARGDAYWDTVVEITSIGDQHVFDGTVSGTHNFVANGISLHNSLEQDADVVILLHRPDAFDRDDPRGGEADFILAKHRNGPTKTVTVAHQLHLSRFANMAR

[16] = target: T10, Protein RecA (Mycobacterium tuberculosis, UniProt P9WHJ3); test: Fluorescence Cell-Free Homogeneous Dose Retest to Identify Inhibitors of RecA-Intein Splicing Activity. [Related pubchem assays (depositor defined):AID2097, AID2223, AID489010, AID492950]; format: functional
T10 sequence (P9WHJ3 whole entry): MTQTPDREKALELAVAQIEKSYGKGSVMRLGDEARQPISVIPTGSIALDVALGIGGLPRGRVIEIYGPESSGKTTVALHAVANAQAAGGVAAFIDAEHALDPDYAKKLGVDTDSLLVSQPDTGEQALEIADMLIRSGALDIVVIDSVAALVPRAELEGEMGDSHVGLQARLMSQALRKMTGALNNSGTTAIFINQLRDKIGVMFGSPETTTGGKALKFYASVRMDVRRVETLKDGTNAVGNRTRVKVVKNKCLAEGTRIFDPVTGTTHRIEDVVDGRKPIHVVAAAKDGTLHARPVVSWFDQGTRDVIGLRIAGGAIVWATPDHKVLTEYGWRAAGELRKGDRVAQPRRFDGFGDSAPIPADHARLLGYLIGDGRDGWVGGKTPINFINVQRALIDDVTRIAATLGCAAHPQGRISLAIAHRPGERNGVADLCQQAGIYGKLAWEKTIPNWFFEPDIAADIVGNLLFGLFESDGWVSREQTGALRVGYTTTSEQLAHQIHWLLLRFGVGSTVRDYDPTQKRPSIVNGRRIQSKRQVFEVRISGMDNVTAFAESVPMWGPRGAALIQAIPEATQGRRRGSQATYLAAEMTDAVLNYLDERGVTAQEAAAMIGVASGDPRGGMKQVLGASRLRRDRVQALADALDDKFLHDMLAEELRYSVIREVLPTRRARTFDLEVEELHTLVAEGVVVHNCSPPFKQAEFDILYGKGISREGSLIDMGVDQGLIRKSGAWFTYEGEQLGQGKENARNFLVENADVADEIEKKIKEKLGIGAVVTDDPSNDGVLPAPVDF

[17] = target: Cytochrome P450 2C9 (Homo sapiens, UniProt P11712)
Sequence of Cytochrome P450 2C9 (P11712 whole entry): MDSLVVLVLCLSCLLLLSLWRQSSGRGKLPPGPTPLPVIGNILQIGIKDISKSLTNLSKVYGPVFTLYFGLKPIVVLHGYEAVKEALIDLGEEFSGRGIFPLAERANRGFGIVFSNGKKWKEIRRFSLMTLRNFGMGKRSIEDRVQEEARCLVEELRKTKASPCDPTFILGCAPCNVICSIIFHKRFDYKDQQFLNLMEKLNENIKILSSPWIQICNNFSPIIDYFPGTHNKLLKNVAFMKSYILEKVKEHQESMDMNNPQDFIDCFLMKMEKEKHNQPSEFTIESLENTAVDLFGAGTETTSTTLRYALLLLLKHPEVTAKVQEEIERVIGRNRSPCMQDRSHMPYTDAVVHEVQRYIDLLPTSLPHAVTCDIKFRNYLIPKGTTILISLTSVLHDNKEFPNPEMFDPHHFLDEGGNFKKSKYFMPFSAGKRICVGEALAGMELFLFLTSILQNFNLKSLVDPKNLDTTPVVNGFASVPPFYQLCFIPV

T2 sequence (P49327 whole entry): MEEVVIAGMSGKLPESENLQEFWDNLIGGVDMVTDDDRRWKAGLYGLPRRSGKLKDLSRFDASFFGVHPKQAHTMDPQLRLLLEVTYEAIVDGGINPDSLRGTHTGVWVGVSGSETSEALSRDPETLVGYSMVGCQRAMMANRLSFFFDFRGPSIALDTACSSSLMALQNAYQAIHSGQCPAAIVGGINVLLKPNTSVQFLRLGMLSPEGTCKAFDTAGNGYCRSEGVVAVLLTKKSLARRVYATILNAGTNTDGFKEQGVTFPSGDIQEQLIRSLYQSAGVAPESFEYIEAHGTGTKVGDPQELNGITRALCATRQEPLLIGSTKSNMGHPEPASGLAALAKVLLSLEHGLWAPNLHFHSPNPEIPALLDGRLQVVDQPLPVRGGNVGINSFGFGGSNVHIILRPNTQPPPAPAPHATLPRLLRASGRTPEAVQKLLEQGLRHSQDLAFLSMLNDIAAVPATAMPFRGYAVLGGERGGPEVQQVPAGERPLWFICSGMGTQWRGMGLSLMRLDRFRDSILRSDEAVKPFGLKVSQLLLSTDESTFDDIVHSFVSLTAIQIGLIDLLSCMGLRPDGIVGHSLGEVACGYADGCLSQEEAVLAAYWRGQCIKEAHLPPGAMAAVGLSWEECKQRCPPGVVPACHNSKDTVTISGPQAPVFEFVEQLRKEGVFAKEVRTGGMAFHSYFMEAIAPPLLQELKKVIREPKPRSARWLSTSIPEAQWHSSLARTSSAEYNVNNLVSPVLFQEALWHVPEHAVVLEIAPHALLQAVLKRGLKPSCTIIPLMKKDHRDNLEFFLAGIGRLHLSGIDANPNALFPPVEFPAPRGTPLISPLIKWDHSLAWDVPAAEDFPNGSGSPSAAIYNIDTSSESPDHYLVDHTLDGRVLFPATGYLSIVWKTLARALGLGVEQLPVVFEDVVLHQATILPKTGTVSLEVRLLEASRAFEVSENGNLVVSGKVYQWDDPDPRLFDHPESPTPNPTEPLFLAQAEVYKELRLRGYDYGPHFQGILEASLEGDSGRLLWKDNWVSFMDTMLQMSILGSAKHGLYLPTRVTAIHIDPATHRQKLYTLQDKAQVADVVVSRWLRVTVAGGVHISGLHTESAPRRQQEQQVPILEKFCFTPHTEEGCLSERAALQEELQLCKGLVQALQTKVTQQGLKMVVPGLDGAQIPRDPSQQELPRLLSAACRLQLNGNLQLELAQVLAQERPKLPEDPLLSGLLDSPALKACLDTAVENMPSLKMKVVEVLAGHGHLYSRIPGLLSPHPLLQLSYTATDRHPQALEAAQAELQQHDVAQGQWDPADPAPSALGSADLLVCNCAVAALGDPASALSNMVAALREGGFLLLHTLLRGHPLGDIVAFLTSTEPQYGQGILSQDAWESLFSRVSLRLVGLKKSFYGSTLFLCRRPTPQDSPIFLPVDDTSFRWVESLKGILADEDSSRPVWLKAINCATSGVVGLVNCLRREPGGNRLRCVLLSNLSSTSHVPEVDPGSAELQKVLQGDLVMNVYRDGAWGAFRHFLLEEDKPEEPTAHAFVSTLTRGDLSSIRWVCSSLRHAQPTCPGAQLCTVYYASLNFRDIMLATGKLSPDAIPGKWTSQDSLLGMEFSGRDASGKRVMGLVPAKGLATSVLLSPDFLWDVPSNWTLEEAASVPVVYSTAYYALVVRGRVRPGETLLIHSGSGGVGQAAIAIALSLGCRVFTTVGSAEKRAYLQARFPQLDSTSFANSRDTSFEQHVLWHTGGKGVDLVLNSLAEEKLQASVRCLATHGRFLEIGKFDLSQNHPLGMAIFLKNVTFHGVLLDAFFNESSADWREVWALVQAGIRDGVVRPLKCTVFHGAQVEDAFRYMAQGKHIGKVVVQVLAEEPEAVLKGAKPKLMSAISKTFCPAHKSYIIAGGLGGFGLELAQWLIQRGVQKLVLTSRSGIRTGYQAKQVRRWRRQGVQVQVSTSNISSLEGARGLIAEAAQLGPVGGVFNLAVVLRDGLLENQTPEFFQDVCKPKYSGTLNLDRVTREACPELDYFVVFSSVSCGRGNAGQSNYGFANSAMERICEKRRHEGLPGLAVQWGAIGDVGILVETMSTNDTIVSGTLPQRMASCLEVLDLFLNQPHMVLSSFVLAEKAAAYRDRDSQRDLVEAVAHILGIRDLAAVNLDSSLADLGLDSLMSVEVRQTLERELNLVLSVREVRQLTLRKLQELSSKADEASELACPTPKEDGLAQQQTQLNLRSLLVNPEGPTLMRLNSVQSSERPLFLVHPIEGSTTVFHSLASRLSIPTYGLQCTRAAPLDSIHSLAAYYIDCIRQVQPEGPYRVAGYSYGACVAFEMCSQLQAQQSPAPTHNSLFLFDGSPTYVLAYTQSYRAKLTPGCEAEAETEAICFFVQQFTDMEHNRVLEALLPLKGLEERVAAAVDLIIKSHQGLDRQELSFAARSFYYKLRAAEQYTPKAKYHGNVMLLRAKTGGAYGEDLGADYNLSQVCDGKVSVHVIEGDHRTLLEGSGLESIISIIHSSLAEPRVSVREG
Sequence of Beta-galactosidase (Q8VNN2 whole entry): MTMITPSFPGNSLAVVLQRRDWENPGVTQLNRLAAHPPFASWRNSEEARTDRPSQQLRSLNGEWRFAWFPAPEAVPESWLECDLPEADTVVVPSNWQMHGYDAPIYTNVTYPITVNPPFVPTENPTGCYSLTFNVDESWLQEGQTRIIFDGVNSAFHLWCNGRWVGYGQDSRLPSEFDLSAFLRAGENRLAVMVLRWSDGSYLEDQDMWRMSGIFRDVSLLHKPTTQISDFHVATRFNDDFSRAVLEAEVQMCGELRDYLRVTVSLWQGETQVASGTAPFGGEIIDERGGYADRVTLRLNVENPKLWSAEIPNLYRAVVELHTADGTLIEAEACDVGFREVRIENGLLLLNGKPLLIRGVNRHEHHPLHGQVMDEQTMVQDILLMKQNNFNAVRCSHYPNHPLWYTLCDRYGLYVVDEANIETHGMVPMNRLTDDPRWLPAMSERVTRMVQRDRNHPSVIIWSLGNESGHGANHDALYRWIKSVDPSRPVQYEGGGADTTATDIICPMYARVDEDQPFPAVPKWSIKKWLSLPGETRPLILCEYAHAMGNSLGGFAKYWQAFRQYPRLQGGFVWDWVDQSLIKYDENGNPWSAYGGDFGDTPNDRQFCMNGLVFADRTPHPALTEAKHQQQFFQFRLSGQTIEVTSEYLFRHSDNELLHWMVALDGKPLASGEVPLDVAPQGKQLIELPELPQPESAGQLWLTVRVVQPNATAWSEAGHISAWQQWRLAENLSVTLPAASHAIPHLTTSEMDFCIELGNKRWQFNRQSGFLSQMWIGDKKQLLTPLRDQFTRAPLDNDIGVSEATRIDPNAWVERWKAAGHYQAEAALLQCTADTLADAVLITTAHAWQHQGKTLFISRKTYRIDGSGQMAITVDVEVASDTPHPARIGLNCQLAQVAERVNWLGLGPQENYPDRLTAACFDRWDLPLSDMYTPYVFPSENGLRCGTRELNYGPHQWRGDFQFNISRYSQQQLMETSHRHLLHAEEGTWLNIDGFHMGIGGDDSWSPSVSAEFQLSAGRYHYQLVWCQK
Sequence of Genome polyprotein (P29990 2492-3391 limits assumed): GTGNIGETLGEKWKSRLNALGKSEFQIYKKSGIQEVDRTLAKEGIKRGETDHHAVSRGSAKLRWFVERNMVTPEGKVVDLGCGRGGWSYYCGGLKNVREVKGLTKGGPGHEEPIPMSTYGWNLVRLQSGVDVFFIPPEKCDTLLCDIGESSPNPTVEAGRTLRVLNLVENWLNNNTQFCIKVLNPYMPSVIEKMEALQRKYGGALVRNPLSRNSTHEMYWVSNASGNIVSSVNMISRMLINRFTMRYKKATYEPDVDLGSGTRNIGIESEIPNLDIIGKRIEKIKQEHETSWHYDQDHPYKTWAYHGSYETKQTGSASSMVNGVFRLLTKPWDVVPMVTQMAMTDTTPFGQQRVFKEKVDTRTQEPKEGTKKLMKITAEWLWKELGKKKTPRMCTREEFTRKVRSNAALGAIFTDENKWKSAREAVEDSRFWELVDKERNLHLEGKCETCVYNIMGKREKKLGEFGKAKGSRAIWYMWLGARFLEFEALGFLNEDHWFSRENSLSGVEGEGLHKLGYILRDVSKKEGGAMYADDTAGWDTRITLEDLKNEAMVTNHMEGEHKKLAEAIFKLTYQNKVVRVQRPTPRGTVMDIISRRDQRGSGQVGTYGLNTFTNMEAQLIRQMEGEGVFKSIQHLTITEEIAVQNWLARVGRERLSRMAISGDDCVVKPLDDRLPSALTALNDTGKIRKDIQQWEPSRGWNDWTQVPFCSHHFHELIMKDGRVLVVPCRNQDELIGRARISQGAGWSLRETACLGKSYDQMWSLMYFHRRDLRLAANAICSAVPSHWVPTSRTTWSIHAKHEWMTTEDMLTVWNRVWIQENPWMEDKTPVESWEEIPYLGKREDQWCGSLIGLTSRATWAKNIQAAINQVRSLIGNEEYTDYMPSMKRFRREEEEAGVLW

Compound: COCC(=O)N(C)C[C@H]1Oc2cc(-c3ccccc3F)ccc2S(=O)(=O)N([C@H](C)CO)C[C@H]1C
- AC50 [1]: 2.56 µM (active)

Compound: O=C(O)CCCCCNc1nc(-c2ccccc2)nc2ccccc12
- IC50 [2]: 26.9 µM (inactive)
- IC50 [3]: 12 µM (active)

Compound: CCCN(CC(=O)Nc1ccc(F)c(F)c1F)C(=O)c1cc([N+](=O)[O-])ccc1N1CCOCC1
- IC50 [4]: 14.9 µM (active)
- IC50 [5]: 10.6 µM (active)

Compound: CCNC(=O)C[C@H]1CC[C@@H]2[C@@H](COc3ccc(NC(=O)Nc4cccc(Cl)c4)cc3C(=O)N2C)O1
- AC50 [1]: 42 µM (active)

Compound: O=C(c1ccc(CNc2c(NC3CCCCC3)c(=O)c2=O)cc1)N1CCc2ccccc21
- AC50 [1]: 0.583 µM (active)

Compound: CCN(CC)Cc1cc2[nH]c3c4ccc(Cl)cc4ncc3c2cc1OC
- IC50 [6]: > 20 µM (inactive)
- AC50 [7]: 14.6 µM (active)
- AC50 [8]: 3.1 µM (active)

Compound: O=C1NC(=S)NC(=O)C12C(c1ccccc1)NC(=S)NC2c1ccccc1 (centres undefined)
- IC50 [9]: 69.4 µM (active)
- IC50 [10]: 5.81 µM (active)

Compound: COc1ccc(C(C(=O)NC2CCCCC2)n2c(=O)c(-c3ccco3)nc3ccccc32)cc1 (centres undefined)
- IC50 [10]: 1.75 µM (active)

Compound: COc1ccc(/C=C/C(=O)NC(=S)Nc2cc([N+](=O)[O-])ccc2O)cc1OC
- EC50 [11]: > 40 µM (inactive)
- IC50 [12]: > 40 µM (not active)
- IC50 [13]: 4.85 µM (active)
- IC50 [2]: > 80 µM (inactive)
- IC50 [3]: 17.8 µM (active)

Compound: CCN(CC)CCOc1ccc(/C(=C(\Cl)c2ccccc2)c2ccccc2)cc1.O=C(O)CC(O)(CC(=O)O)C(=O)O [CLOMIPHENE CITRATE]
- AC50 [14]: 0.997 µM (active)
- IC50 [6]: > 20 µM (inactive)
- AC50 [15]: 3.79 µM (active)
- EC50 [16]: 12.1 µM (active)
- IC50 [10]: 10.8 µM (inactive)
- AC50 [17]: inconclusive
